Measured values: patent publication US20240409536A1, “COMPOUNDS AND METHODS FOR MODULATING SPLICING” (REMIX THERAPEUTICS INC., priority 2021, published 2024)
Structures can show the parent of a compound that is named as a salt.

Assays:
HTT mRNA [1] = assay: Gene panel canonical junction qPCR assay, HTT CJ mRNA decrease; format: cell-based, human; conditions: Homo sapiens, canonical junction qPCR, read-out: HTT IC50 (decrease in CJ mRNA levels)
Outline: (§1)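 A673 or K562 cells were treated with compound, and lysates underwent cDNA synthesis and qPCR with a CY5 5′-nuclease probe or primer spanning the canonical exon junction. ΔCt versus GAPDH, GUSB or PPIA was normalized to DMSO (2^(−ΔΔCt)), converted to percentage response and fitted four-parameter logistic for IC50.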

SMN2 mRNA = assay: Gene panel canonical junction qPCR assay, SMN2 CJ mRNA decrease; format: cell-based, human; conditions: Homo sapiens, canonical junction qPCR, read-out: SMN2 IC50 (decrease in CJ mRNA levels)
Outline: as §1

HTT mRNA [2] = assay: Splicing RT-qPCR assay, HTT canonical (CJ) and alternative (AJ) junction mRNA; format: cell-based; conditions: Homo sapiens, A673 or K562 cells, 24 hours; for IC50: decrease in canonical junction mRNA; for AC50: increase in alternative junction mRNA
Outline: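 A673 or K562 cells were treated 24 h at 37 °C with compounds in an 11-point 3-fold dilution series (top final 10 uM, DMSO ≤0.25%). Lysates were analysed by one-step RT-qPCR for canonical (CJ) and alternative-exon (AJ) junction isoforms, normalized to GAPDH, GUSB or PPIA.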

SMILES | IC50 (HTT mRNA [1]) | IC50 (SMN2 mRNA) | IC50 (HTT mRNA [2]) | AC50 (HTT mRNA [2])
Cc1cn2cc(NC(=O)c3ccc(N4C[C@@H](C)N[C@@H](C)C4)c4ccnnc34)nc(C)c2n1 [Compound 172, N-{2,8-dimethylimidazo[1,2-a]pyrazin-6-yl}-5-[(3R,5S)-3,5-dimethylpiperazin-1-yl]cinnoline-8-carboxamide] | > 10 µM | < 0.1 µM | > 10 µM | > 10 µM
COc1cc(NC(=O)c2ccc(N3CCNCC3)c3ccnnc23)cn2cc(C)nc12 [Compound 176, N-{8-methoxy-2-methylimidazo[1,2-a]pyridin-6-yl}-5-(piperazin-1-yl)cinnoline-8-carboxamide trifluoroacetate] | > 10 µM | < 0.1 µM | > 10 µM | > 10 µM
Cc1cn2cc(NC(=O)c3ccc(C4CCN(C)CC4)c4ccnnc34)cc(F)c2n1 [Compound 140] | 1 to 10 µM | < 0.1 µM | 1 to 10 µM | 1 to 10 µM
COc1cnc2c(N3C[C@@H](C)N[C@@H](C)C3)ccc(C(=O)Nc3cc(F)c4nc(C)cn4c3)c2n1 [Compound 205, 8-[(3R,5S)-3,5-dimethylpiperazin-1-yl]-N-{8-fluoro-2-methylimidazo[1,2-a]pyridin-6-yl}-3-methoxyquinoxaline-5-carboxamide; trifluoroacetic acid] | 0.1 to 1 µM | < 0.1 µM | 0.1 to 1 µM | 0.1 to 1 µM
Cc1cn2cc(NC(=O)c3ccc(N4CCNC5(CCOC5)C4)c4nccnc34)cc(F)c2n1 (centres unmarked) [Compound 373] | > 10 µM | < 0.1 µM | > 10 µM | > 10 µM
Cc1cn2cc(NC(=O)c3ccc(N4C[C@@H](C)NC5(CC5)C4)c4nccnc34)cc(F)c2n1 [Compound 376] | > 10 µM | < 0.1 µM | > 10 µM | > 10 µM
Cc1cnc2c(N3CCNCC3)ccc(C(=O)Nc3cc(F)c4nc(C)cn4c3)c2n1 [Compound 197, N-{8-fluoro-2-methylimidazo[1,2-a]pyridin-6-yl}-3-methyl-8-(piperazin-1-yl)quinoxaline-5-carboxamide; trifluoroacetic acid] | 1 to 10 µM | < 0.1 µM | 1 to 10 µM | 1 to 10 µM
COc1cc2c(N3CCNCC3)ccc(C(=O)Nc3cc(F)c4nc(C)cn4c3)c2nn1 [Compound 183, N-{8-fluoro-2-methylimidazo[1,2-a]pyridin-6-yl}-3-methoxy-5-(piperazin-1-yl)cinnoline-8-carboxamide] | 1 to 10 µM | < 0.1 µM | 1 to 10 µM | 1 to 10 µM
Cc1cn2cc(NC(=O)c3ccc(N4CCC5(CCN5)CC4)c4nccnc34)cc(F)c2n1 [Compound 189, 8-{1,7-diazaspiro[3.5]nonan-7-yl}-N-{8-fluoro-2-methylimidazo[1,2-a]pyridin-6-yl}quinoxaline-5-carboxamide] | 0.1 to 1 µM | < 0.1 µM | 0.1 to 1 µM | 0.1 to 1 µM
Cc1cn2cc(NC(=O)c3ccc(N4CCNC5(CC5)C4)c4ccnnc34)cc(F)c2n1 [Compound 105] | 1 to 10 µM | < 0.1 µM | 1 to 10 µM | 1 to 10 µM
Cc1nc(NC(=O)c2ccc(N3CCNCC3)c3ccnnc23)cc2cn(C)nc12 [Compound 178, N-{2,7-dimethylpyrazolo[3,4-c]pyridin-5-yl}-5-(piperazin-1-yl)cinnoline-8-carboxamide] | > 10 µM | < 0.1 µM | > 10 µM | > 10 µM
Cc1cn2nc(NC(=O)c3ccc(N4CCNCC4)c4ccnnc34)cc(C)c2n1 [Compound 100] | 0.1 to 1 µM | 0.1 to 1 µM | 0.1 to 1 µM | 0.1 to 1 µM
CN[C@H]1CCN(c2ccc(C(=O)Nc3cc(F)c4nc(C)cn4c3)c3nccnc23)C1 (single isomer, unassigned) [Compound 194, N-{8-fluoro-2-methylimidazo[1,2-a]pyridin-6-yl}-8-[3-(methylamino)pyrrolidin-1-yl]quinoxaline-5-carboxamide] | 1 to 10 µM | < 0.1 µM | 1 to 10 µM | 1 to 10 µM
Cc1cn2cc(NC(=O)c3ccc(N4CCNC(C)(C)C4)c4nccnc34)cc(F)c2n1 [Compound 220, 8-(3,3-dimethylpiperazin-1-yl)-N-{8-fluoro-2-methylimidazo[1,2-a]pyridin-6-yl}quinoxaline-5-carboxamide] | 1 to 10 µM | < 0.1 µM | 1 to 10 µM | 1 to 10 µM
Cc1cn2cc(NC(=O)c3ccc(N4C[C@H](C)NC5(CC5)C4)c4nccnc34)cc(F)c2n1 [Compound 377] | 1 to 10 µM | < 0.1 µM | 1 to 10 µM | 1 to 10 µM
CNCC1CCN(c2ccc(C(=O)Nc3cc(F)c4nc(C)cn4c3)c3nccnc23)CC1 [Compound 192, N-{8-fluoro-2-methylimidazo[1,2-a]pyridin-6-yl}-8-{4-[(methylamino)methyl]piperidin-1-yl}quinoxaline-5-carboxamide trifluoroacetate] | 1 to 10 µM | 0.1 to 1 µM | 1 to 10 µM | 1 to 10 µM

The next lines start with results.

IC50 (HTT mRNA [1]) | IC50 (SMN2 mRNA) | IC50 (HTT mRNA [2]) | SMILES | AC50 (HTT mRNA [2])
1 to 10 µM | < 0.1 µM | 1 to 10 µM | Cc1cn2cc(NC(=O)c3ccc(N4CCN(C)CC4)c4ccnnc34)cc(F)c2n1 [Compound 127] | 1 to 10 µM
1 to 10 µM | < 0.1 µM | 1 to 10 µM | Cc1cn2cc(NC(=O)c3ccc(N4CCN5CCC[C@H]5C4)c4ccnnc34)cc(F)c2n1 [Compound 154] | 1 to 10 µM
1 to 10 µM | < 0.1 µM | 1 to 10 µM | Cc1cn2cc(NC(=O)c3ccc(N4CCC(N(C)C)C4)c4ccnnc34)cc(F)c2n1 (centres unmarked) [Compound 134] | 1 to 10 µM
1 to 10 µM | < 0.1 µM | 1 to 10 µM | CC[C@H]1CN(c2ccc(C(=O)Nc3cc(F)c4nc(C)cn4c3)c3nnccc23)CCN1 [Compound 152] | 1 to 10 µM
1 to 10 µM | < 0.1 µM | 1 to 10 µM | CCC1CN(c2ccc(C(=O)Nc3cc(F)c4nc(C)cn4c3)c3nnccc23)CCN1 (centres unmarked) [Compound 130] | 1 to 10 µM
1 to 10 µM | < 0.1 µM | 1 to 10 µM | Cc1cn2cc(NC(=O)c3ccc(N4CCN(C)[C@H](C)C4)c4ccnnc34)cc(F)c2n1 [Compound 149] | 1 to 10 µM
1 to 10 µM | < 0.1 µM | 1 to 10 µM | Cc1cn2cc(NC(=O)c3ccc(N4CCC(NC(C)(C)C)CC4)c4ccnnc34)cc(F)c2n1 [Compound 138] | 1 to 10 µM
1 to 10 µM | < 0.1 µM | 1 to 10 µM | Cc1cn2cc(NC(=O)c3ccc(N4CC5(CNC5)C4)c4ccnnc34)cc(F)c2n1 [Compound 131] | 1 to 10 µM
1 to 10 µM | < 0.1 µM | 1 to 10 µM | Cc1cn2cc(NC(=O)c3ccc(N4C[C@@H](C)N[C@@H](C)C4)c4ccnnc34)cc(F)c2n1 [Compound 161, 5-(3,5-dimethylpiperazin-1-yl)-N-{8-fluoro-2-methylimidazo[1,2-a]pyridin-6-yl}cinnoline-8-carboxamide 2,2,2-trifluoroacetate] | 1 to 10 µM
1 to 10 µM | < 0.1 µM | 1 to 10 µM | Cc1cn2cc(NC(=O)c3ccc(N4CCN(C)[C@@H](C)C4)c4ccnnc34)cc(F)c2n1 [Compound 150] | 1 to 10 µM
